We go through three compounds from patent EP4732841A1, “FOAM SCLEROSANT COMPOSITION, AND PREPARATION METHOD THEREFOR AND USE THEREOF” (Jenkem Technology Co., Ltd. (Beijing), priority 2023, dated 2025).

For one data set, the system named is rabbit marginal ear vein. Kind of data set: Venous sclerosing effect in the rabbit marginal ear vein model. The following applies: maximum volume 0.25 mL, calculated on number of rabbit ears. Type of data set: in vivo. On the procedure:
The rabbit marginal ear vein was used as an experimental model to compare the effects of adding different concentrations of sodium hyaluronate on the venous sclerosing effect of polidocanol. The specific method was as follows: (1) Domestic rabbits were anesthetized with xylazine (2-5 mg/kg, intramuscular injection). Subsequently, the hair on the ears was shaved, and the area was disinfected using a 0.5% chlorhexidine alcohol solution. (2) The Tessari method was used to foam the polidocanol with the addition of sodium hyaluronate, i.e., two 10 mL syringes were connected via a three-way tube and rapidly pushed and pulled back and forth at a certain gas-to-liquid ratio until foam was formed. (3) A disposable syringe was used to puncture the marginal vein, and the sclerosant was injected slowly, with a maximum volume of 0.25 mL. […]
In this example, 14 days after the injection of different types of polidocanol into some rabbit marginal ear veins, some blood vessels were occluded. […] All rabbit ear blood vessels were scored, with effective ones recorded as 1 and ineffective ones recorded as 0.
The calculation rule for the effective rate was as follows: effective rate = score of rabbit ears/total number of rabbit ears × 100% (calculated based on the number of rabbit ears).
All rabbit ear blood vessels were scored, with effective ones recorded as 1 and ineffective ones recorded as 0. […]

Data set [1] can be described thus: Foam stability of polidocanol with single molecular weight (Tessari method). It is filed as physicochemical. The following applies: for Foam coalescence time / Foam drainage time: 1% solution in 4% solution of ethanol in PBS, Tessari method, gas-to-liquid ratio 3:1; for foam formed after thorough mixing with air: 1% solutions mixed with air at a volume ratio of 1:3. The method, then: Samples of polidocanol with a single molecular weight (DD-PEG8-OH, DD-PEG9-OH, and DD-PEG10-OH prepared in Example 1) and a control (polidocanol in a mixture state containing different molecular weights, purchased from Siegfried Hameln GmbH, Germany, batch number OK13103) were separately weighed and prepared into 1% solutions using a 4% solution of ethanol in PBS. The polidocanol was foamed using the Tessari method, i.e., two 2.5 mL syringes were connected via a three-way tube and rapidly pushed and pulled back and forth at a gas-to-liquid ratio of 3:1 until foam formed. All foam was collected into one syringe, the volume was brought to 2 mL, and the foam state was observed while standing. The following parameters were recorded: foam drainage time, foam halflife time, and foam coalescence time.

On to `CCCCCCCCCCCCOCCOCCOCCOCCOCCOCCOCCOCCOCCO` [P9], for which, in the data set on rabbit marginal ear vein (venous sclerosis 14 days after injection of foam into rabbit marginal ear veins), the “D14 effective rate (%)” value is listed as 91.67%. Further, in the data set with rabbit marginal ear vein (venous sclerosis 21 days after injection of foam into rabbit marginal ear veins), the “D21 effective rate (%)” value is reported as 83.33%.
On to `CCCCCCCCCCCCOCCOCCOCCOCCOCCOCCOCCOCCOCCOCCO` [P10], for which, in data set [1], the Foam coalescence time is 20 min, the Foam drainage time was found to be 8 s and the “foam formed after thorough mixing with air” value is given as “formed homogeneous foam”. Further, the Foam coalescence time in data set [1] (listed as P10 (1%)) came out at 20 m.
Turning to `CCCCCCCCCCCCOCCOCCOCCOCCOCCOCCOCCOCCO` [P8], in data set [1], the Foam coalescence time turned out to be 13 min, the Foam drainage time is 3 s and the “foam formed after thorough mixing with air” value is given as “formed homogeneous foam”. Further, the Foam coalescence time in data set [1] (listed as P8 (1%)) was 13 m.
